Assay results as given in patent EP0508726A1, “Novel process for the preparation of 9-deoxo-8a-aza-8a-homoerythromycin a and its 8a-alkyl derivatives” (MERCK & CO. INC., priority 1991, dated 1992).
Values after ≈ are worked out from the molar mass of the structure shown.

Key:
Experiment in all cases: liquid turbidimetric microtiter MIC determination
Type in all cases: cell-based
[1] = test system: Enterococcus faecalis MB 5407; details: MB5407, brain heart infusion broth
Text: (§1) The antibacterial activities of compounds (IV), (X) against a panel of aerobic Gram positive and negative bacteria is shown in the following Table. The assay employs a liquid turbidimetric microtiter method for the determination of the minimum inhibitory concentration (MIC) in brain heart infusion broth. […] The MIC is generally not an absolute value but rather a concentration range that falls within a two-fold dilution limit. Generally twelve two-fold dilutions of the test compound are employed with the initial concentration set at 128 mcg/ml.

[2] = test system: Enterococcus faecium MB 5416; details: MB5416, brain heart infusion broth
Text: as §1

Escherichia coli MB 2884 = details: MB2884, brain heart infusion broth
Text: as §1

Escherichia coli MB 4926 = details: MB4926, brain heart infusion broth
Text: as §1

[3] = test system: Klebsiella pneumoniae MB 4005; details: MB4005, brain heart infusion broth
Text: as §1

[4] = test system: Pseudomonas stutzeri MB 1231; details: Stutzerimonas stutzeri, MB1231, brain heart infusion broth
Text: as §1

[5] = test system: Staphylococcus aureus MB 2865; details: MB2865, brain heart infusion broth
Text: as §1

[6] = test system: Staphylococcus epidermidis MB 5414; details: MB5414, brain heart infusion broth
Text: as §1

[7] = test system: Staphylococcus haemolyticus MB 5412; details: MB5412, brain heart infusion broth
Text: as §1

[8] = test system: Steptococcus viridans CL 2943; details: brain heart infusion broth
Text: as §1

[9] = test system: Streptococcus agalactiae CL 1343; details: CL1343, brain heart infusion broth
Text: as §1

[10] = test system: Streptococcus pneumoniae CL 2883; details: CL2883, brain heart infusion broth
Text: as §1

[11] = test system: Streptococcus pyogenes MB 2874; details: MB2874, brain heart infusion broth
Text: as §1

[12] = test system: Streptococcus pyogenes MB 54061; details: MB54061, brain heart infusion broth
Text: as §1

[13] = test system: Yersinia enterocoltica CL 1598; details: CL1598, brain heart infusion broth
Text: as §1

Row | MIC [1] | MIC [2] | MIC (Escherichia coli MB 2884) | MIC (Escherichia coli MB 4926) | MIC [3] | MIC [4] | MIC [5] | MIC [6] | MIC [8] | MIC [9] | MIC [10] | MIC [11] | MIC [12] | MIC [13] | SMILES | MIC [7]
1 | 8 µg/mL (≈ 10.9 µM) | 0.25 µg/mL (≈ 0.34 µM) | 4 µg/mL (≈ 5.44 µM) | 2 µg/mL (≈ 2.72 µM) | 64 µg/mL (≈ 87.1 µM) | ≤ 0.06 µg/mL | 0.5 µg/mL (≈ 0.68 µM) | 1 µg/mL (≈ 1.36 µM) | 8 µg/mL (≈ 10.9 µM) | ≤ 0.06 µg/mL | 0.06 µg/mL (≈ 0.0816 µM) | 0.06 µg/mL (≈ 0.0816 µM) | 128 µg/mL (≈ 174 µM) | 8 µg/mL (≈ 10.9 µM) | CC[C@H]1OC(=O)[C@H](C)[C@@H](O[C@H]2C[C@@](C)(OC)[C@@H](O)[C@H](C)O2)[C@H](C)[C@@H](O[C@@H]2O[C@H](C)C[C@H](N(C)C)[C@H]2O)[C@](C)(O)C[C@@H](C)NC[C@H](C)[C@@H](O)[C@]1(C)O [(IV), 9-Deoxo-8a-aza-8a-homoerythromycin A] | 0.5 µg/mL (≈ 0.68 µM)
2 | 4 µg/mL (≈ 5.34 µM) | 0.25 µg/mL (≈ 0.334 µM) | 1 µg/mL (≈ 1.34 µM) | ≤ 0.06 µg/mL | 2 µg/mL (≈ 2.67 µM) | ≤ 0.06 µg/mL | 0.5 µg/mL (≈ 0.668 µM) | 1 µg/mL (≈ 1.34 µM) | 1 µg/mL (≈ 1.34 µM) | ≤ 0.06 µg/mL | ≤ 0.06 µg/mL | ≤ 0.06 µg/mL | 128 µg/mL (≈ 171 µM) | 2 µg/mL (≈ 2.67 µM) | CC[C@H]1OC(=O)[C@H](C)[C@@H](O[C@H]2C[C@@](C)(OC)[C@@H](O)[C@H](C)O2)[C@H](C)[C@@H](O[C@@H]2O[C@H](C)C[C@H](N(C)C)[C@H]2O)[C@](C)(O)C[C@@H](C)N(C)C[C@H](C)[C@@H](O)[C@]1(C)O [(X), 9-Deoxo-8a-methyl-8a-aza-8a-homoerythromycin A] | 0.5 µg/mL (≈ 0.668 µM)
